# Laboratory results from patent US11655308B2, “HM-3 fusion protein and application thereof” (TASLY BIOPHARMACEUTICALS CO., LTD., priority 2017, dated 2023).
# Like-named read-outs stand apart in the source and are kept apart here. Marks after values point to notes of the source that are not given here.
# Assays:
# [1] = rat, in vivo, sc
# Method: (1) 18 SD rats (half male and half female) were purchased and fed for one week.
# (2) Rats were divided into 3 groups, half male and half female, and weight of rats were recorded respectively.
# The blood was centrifuged at 12000 rpm/min to take 200 μL of supernatant, then the supernatant was diluted with PBS solution according to a ratio of 1:3, and finally placed in an EP tube and stored in a −80° C. refrigerator.
# (4) Biological samples were measured by double-antibody sandwich ELISA.
# (1) Coating, HM-3 monoclonal antibody was diluted with a coating buffer (CBS) in certain concentration, added to an ELISA plate and coated overnight.
# (2) Plate washing, the coating buffer was discarded, and the plate was washed by PBST for 3 times, and then dried by patting.
# (3) Sealing, a blocking buffer was added for sealing at 37.5° C., the plate washing process was repeated and the plate was dried by patting.
# (4) Addition of samples to be measured, the samples to be measured were added to the ELISA plate with multiple wells, and then incubated at 37.5° C.; the plate washing process was repeated and the plate was dried by patting.
# (5) Addition of a secondary antibody, the secondary antibody diluted proportionally was added for incubation at 37.5° C. The plate washing process was repeated and the plate was dried by patting.
# (6) Addition of the enzyme-labeled secondary antibody for reaction, the HRP-labeled secondary antibody which was diluted by 5% skim milk powder solution according to certain proportion was added for incubation at 37.5° C. The plate washing process was repeated and the plate was dried by patting.
# (7) Addition of a substrate, a TMB substrate in certain volume L was added for reaction in the dark.
# (8) Termination of the reaction, a certain amount of stop buffer was added to terminate the reaction.
# (9) Detection, read OD450 nm with a microplate reader.
# type-II CIA mice = experiment: Chronic inflammation model of type-II CIA in mice; format: in vivo, Balb/c mice; settings: for ankle width / arthritis scoring / paw circumference / weight of mice / paw weight / spleen weight: day 60; for ankle width: model G2 4.83±0.20; for arthritis scoring: model G2 11.5±1.7; for paw circumference: model G2 13.62; for weight of mice: model G2 19.5±1.6; for paw weight: model G2 219.3±20.6; for spleen weight: model G2 114.6±14.5
# Method: Experimental method: Balb/c mice were taken and immunized for the first time. The concentration of type-II bovine collagen was 4 mg/mL. On the day of the experiment (day 0), complete Freund's adjuvant (CFA) and CII solution were mixed evenly in equal volume and emulsified. Excepting for the normal control group of Balb/c mice, mice in each group were sensitized by intracutaneous injection of 50 μL emulsifier at the end of tails. 21 days later, mice were re-immunized with the same dose of emulsifier at the end of tails, and incomplete Freund's adjuvant (IFA) served as an adjuvant at this time. Redness and swelling other arthritic symptoms appeared on toe joints of mice models approximately on the 29th day of the experiment, indicating successful modeling.
# Animals in the modeling group on the 30th day of the experiment were randomly divided into:
# There were 12 groups in total, and there were 8 pieces of mice in remaining each group excepting for 12 pieces in G1 (normal control group) and G2 (model group).
# Measurement of mice weight: mice were weighed by an electronic balance every two days.
# Measurement of sole thickness: the thickness of left, right and hind soles for each mouse was measured by a vernier caliper every two days.
# Measurement of ankle joint width: the width of left and right ankle joints for each mouse was measured by vernier caliper every two days.
# Arthritis index (AI) score: the severity of arthritis for each mouse was evaluated by a paw joint scoring method. 0: no redness and swelling; 1: redness and swelling of little toe joints; 2: redness and swelling of toe joints and toes; 3: redness and swelling of the portion below ankle joints; 4: redness and swelling of toe joints, toes and ankle joints. Scoring was performed once every two days until the end of the experiment.
# Blood was collected from the orbit and serum was separated. After mice were killed by cervical dislocation, spleen and thymus were separated and weighed to calculate a spleen coefficient, and then the spleen and thymus were fixed in formalin stationary liquid.
# Rat chondrocyte = experiment: Protective effect of TSL-4 on chondrocytes injured by hydrogen peroxide (MTT); format: cell-based
# Method: The culture medium was replaced to different experimental groups in the following day with a dose volume of 100 μl and incubated for 24 or 48 hours respectively.
# At the end of incubation according to the experimental plan, 10 μL of 5 mg/ml MTT was added to each experimental group based upon 1/10 of the cell culture volume, so that the cells were incubated with MTT in the incubator for 4 hours. Afterwards, supernatant was carefully discarded, and 200 μL of dimethyl sulfoxide (DMSO) was added for mixing well, then the absorbance was measured on a microplate reader at a test wavelength of 570 nm. Calculating formula of relative cell activity ratio (%): a mean value of the absorbance (per well) in the experimental group/the absorbance in the control group multiplies by 100%. […] The difference between each group was analyzed by Prism 7.0, and tested by one-way ANOVA. *P<0.05 means statistical difference, **P<0.01 means significant statistical difference, and […] means extremely significant statistical difference.
# In order to detect the protective effect of TSL-4 on chondrocytes injured by hydrogen peroxide, the experiment was divided into three groups control group (no hydrogen peroxide and TSL-4, only adding fresh culture medium), hydrogen peroxide modeling group (only adding hydrogen peroxide cell culture medium containing different concentrations) and TSL-4 administration group (containing hydrogen peroxide). In order to detect the protective effect of TSL-4 on chondrocytes injured by hydrogen peroxide, TSL-4 and hydrogen peroxide were cultured with chondrocytes for 24 hours. The dosage of hydrogen peroxide was selected within 0.1, 0.25, 0.5 and 1 mM; the TSL-4 dosage was 0.23, 1.17, 5.86, 29.3
# In the presence of different doses of H2O2, TSL-4 at proper concentration and chondrocytes were cultured for 24 h, and the relative cell viability in each administration group (relative absorbance percentage to the control group) was expressed as the following X±SD.
# In the presence of the molding agent H2O2 at 0.25, 0.35, 0.5 mM, 1.17 and 5.86 μM TSL-4 were cultured with chondrocytes for 24 h, and the relative cell viability in each administration group (relative absorbance percentage to the control group) was expressed as the followings X±SD.
# [2] = G6 TSL-4 50 mg/kg SC 1 time/5 d, 3 times
# [3] = G7 TSL-4 25 mg/kg SC 1 time/5 d, 3 times
# [4] = G8 TSL-4 25 mg/kg SC 1 time/7 d, 2 times
# [5] = G10 TSL-4 12.5 mg/kg SC 1 time/5 d, 3 times
substance,measurement,setting,value
mIgG4-Fc-(GGGGS)3-HM-3 [TSL-4],Vd/F,[1]; 4.17 mg/kg,4.200 L/kg
same,Vd/F,[1]; 12.5 mg/kg,3.177 L/kg
same,Vd/F,[1]; 37.5 mg/kg,4.967 L/kg
same,ankle width,type-II CIA mice; [2],3.96±0.09 mm
same,arthritis scoring,type-II CIA mice; [2],6.5±1.1
same,paw circumference,type-II CIA mice; [2],10.80±0.26 mm
same,weight of mice,type-II CIA mice; [2],20.8 ± 1.8 g
same,paw weight,type-II CIA mice; [2],176.2 ± 8.9 mg
same,ankle width,type-II CIA mice; [3],3.98±0.08 mm
same,arthritis scoring,type-II CIA mice; [3],6.6±1.1
same,paw circumference,type-II CIA mice; [3],10.87±0.14 mm
same,weight of mice,type-II CIA mice; [3],21.1 ± 1.6 g
same,spleen weight,type-II CIA mice; [3],95.1 ± 9.5 mg
same,paw weight,type-II CIA mice; [3],176.4 ± 9.7 mg
same,ankle width,type-II CIA mice; [4],4.00±0.16 mm
same,arthritis scoring,type-II CIA mice; [4],7.1±0.6
same,paw circumference,type-II CIA mice; [4],10.97±0.32 mm
same,weight of mice,type-II CIA mice; [4],20.8 ± 1.7 g
same,spleen weight,type-II CIA mice; [4],95.8 ± 11.4 mg
same,paw weight,type-II CIA mice; [4],177.1 ± 7.8 mg
same,ankle width,type-II CIA mice; [5],4.26±0.13 mm
same,arthritis scoring,type-II CIA mice; [5],8.6±1.8
same,paw circumference,type-II CIA mice; [5],11.64±0.19 mm
same,weight of mice,type-II CIA mice; [5],21.5 ± 1.5 g
same,spleen weight,type-II CIA mice; [5],97.5 ± 5.1 mg
same,therapeutic effect compared with group G3 (positive Adalimumab group),"type-II CIA mice; groups G4 (HM-3), G10 (TSL-4 12.5 mg/kg once for 5 days, 3 times)",slightly lower than that of the group G3
same,therapeutic effect compared with group G3 (positive Adalimumab group),"type-II CIA mice; groups G5 (mPEG-SC-HM-3), G6, G7, G8 (TSL-4)",better than the group G3
same,relative cell viability (relative absorbance percentage to the control group),"Rat chondrocyte; 0.23 μM TSL-4, 0.1 mM H2O2, 24 h, 0 μM 106.87 ± 9.52",84.23 ± 20.42***
same,relative cell viability (relative absorbance percentage to the control group),"Rat chondrocyte; 0.23 μM TSL-4, 0.25 mM H2O2, 24 h, 0 μM 70.96 ± 11.61",71.42 ± 6.74
same,relative cell viability (relative absorbance percentage to the control group),"Rat chondrocyte; 0.23 μM TSL-4, 0.5 mM H2O2, 24 h, 0 μM 1.68 ± 0.82",3.17 ± 1.45
same,relative cell viability (relative absorbance percentage to the control group),"Rat chondrocyte; 0.23 μM TSL-4, 1 mM H2O2, 24 h, 0 μM 3.57 ± 0.60",0.89 ± 0.32
same,relative cell viability (relative absorbance percentage to the control group),"Rat chondrocyte; 1.17 μM TSL-4, 0.1 mM H2O2, 24 h, 0 μM 106.87 ± 9.52",100.01 ± 5.02
same,relative cell viability (relative absorbance percentage to the control group),"Rat chondrocyte; 1.17 μM TSL-4, 0.25 mM H2O2, 24 h, 0 μM 70.96 ± 11.61",85.11 ± 8.08*
same,relative cell viability (relative absorbance percentage to the control group),"Rat chondrocyte; 1.17 μM TSL-4, 0.5 mM H2O2, 24 h, 0 μM 1.68 ± 0.82",16.56 ± 5.91*
same,relative cell viability (relative absorbance percentage to the control group),"Rat chondrocyte; 1.17 μM TSL-4, 1 mM H2O2, 24 h, 0 μM 3.57 ± 0.60",1.14 ± 1.07
same,relative cell viability (relative absorbance percentage to the control group),"Rat chondrocyte; 5.86 μM TSL-4, 0.1 mM H2O2, 24 h, 0 μM 106.87 ± 9.52",102.36 ± 9.75
same,relative cell viability (relative absorbance percentage to the control group),"Rat chondrocyte; 5.86 μM TSL-4, 0.25 mM H2O2, 24 h, 0 μM 70.96 ± 11.61",86.35 ± 4.20*
same,relative cell viability (relative absorbance percentage to the control group),"Rat chondrocyte; 5.86 μM TSL-4, 0.5 mM H2O2, 24 h, 0 μM 1.68 ± 0.82",10.27 ± 7.08
same,relative cell viability (relative absorbance percentage to the control group),"Rat chondrocyte; 5.86 μM TSL-4, 1 mM H2O2, 24 h, 0 μM 3.57 ± 0.60",1.21 ± 0.70
same,relative cell viability (relative absorbance percentage to the control group),"Rat chondrocyte; 29.3 μM TSL-4, 0.1 mM H2O2, 24 h, 0 μM 106.87 ± 9.52",76.46 ± 5.45****
same,relative cell viability (relative absorbance percentage to the control group),"Rat chondrocyte; 29.3 μM TSL-4, 0.25 mM H2O2, 24 h, 0 μM 70.96 ± 11.61",59.72 ± 3.49
same,relative cell viability (relative absorbance percentage to the control group),"Rat chondrocyte; 29.3 μM TSL-4, 0.5 mM H2O2, 24 h, 0 μM 1.68 ± 0.82",3.87 ± 6.00
same,relative cell viability (relative absorbance percentage to the control group),"Rat chondrocyte; 29.3 μM TSL-4, 1 mM H2O2, 24 h, 0 μM 3.57 ± 0.60",0.43 ± 0.53
same,viability of chondrocytes stimulated by H2O2,"Rat chondrocyte; 0.23/29.3 μM TSL-4, 0.1 mM H2O2",relatively significantly inhibiting effect
same,relative cell viability (relative absorbance percentage to the control group),"Rat chondrocyte; repeated trial: 1.17 μM TSL-4, 0.25 mM H2O2, 24 h, 0 μM 78.77 ± 7.45",85.31 ± 7.36
same,relative cell viability (relative absorbance percentage to the control group),"Rat chondrocyte; repeated trial: 1.17 μM TSL-4, 0.35 mM H2O2, 24 h, 0 μM 63.96 ± 6.46",68.54 ± 3.62
same,relative cell viability (relative absorbance percentage to the control group),"Rat chondrocyte; repeated trial: 1.17 μM TSL-4, 0.5 mM H2O2, 24 h, 0 μM 37.10 ± 6.53",41.46 ± 2.08
same,relative cell viability (relative absorbance percentage to the control group),"Rat chondrocyte; repeated trial: 5.86 μM TSL-4, 0.25 mM H2O2, 24 h, 0 μM 78.77 ± 7.45",87.36 ± 7.85
same,viability of chondrocytes injured by H2O2,"Rat chondrocyte; repeated trial: 5.86 μM TSL-4, 0.35 mM H2O2",significantly improve the viability of chondrocytes
same,relative cell viability (relative absorbance percentage to the control group),"Rat chondrocyte; repeated trial: 5.86 μM TSL-4, 0.35 mM H2O2, 24 h, 0 μM 63.96 ± 6.46",73.29 ± 4.39
same,relative cell viability (relative absorbance percentage to the control group),"Rat chondrocyte; repeated trial: 5.86 μM TSL-4, 0.5 mM H2O2, 24 h, 0 μM 37.10 ± 6.53",45.07 ± 6.36
